Experimental data from US4450269A, “Mono-5-substituted-3-chloro-4H-1,2,6-thiadiazin-4-one antifungal agents” (FMC Corporation, priority 1980, dated 1984).
Structures can show the parent of a compound that is named as a salt.

Key:
Cercospora beticola = assay: whole plant or invertebrate; conditions: in Beta vulgaris, foliar, 24 h, read-out: Percent Disease Control, curative, sugar beet leaf spot
Fusarium solani = assay: Soil treatment, bean root rot; type: in vivo; conditions: Fusarium solani, soil, 336 h; 150 ppm suspension, 3.8 mg active per pot; read-out: Percent Disease Control, seed/soil, bean root rot
Protocol: In a similar manner the soil around a bean seedling was drenched with a sufficient amount of 150 ppm suspension of test chemical to provide 3.8 mg active per pot. Twenty-four hours later the soil was inoculated with a suspension of minced mycelium of Fusarium solani. The inoculated plants were then placed in a greenhouse, evaluated after fourteen days, and percent control of root rot damage calculated. The results, reported in Table III, indicate only a few of the compounds tested are effective in treating Bean Root Rot but that these provide a high degree of control.

Pythium ultimum = assay: Mycelial growth test; type: cell-based; conditions: PU; for inhibition at 5 ppm / inhibition at 10 ppm / inhibition at 20 ppm / inhibition at 40 ppm: Globisporangium ultimum, 72 h, read-out: Percent Fungus Growth Inhibition; for Percent Fungus Growth Inhibition: 72 hours, hydrochloride

Structure (SMILES) | pest or weed control at 150 ppm (Cercospora beticola) [%] | pest or weed control at 150 ppm, 3.8 mg/pot (Fusarium solani) [%] | inhibition at 5 ppm (Pythium ultimum) [%] | inhibition at 10 ppm (Pythium ultimum) [%] | inhibition at 20 ppm (Pythium ultimum; 20 ppm) [%] | inhibition at 40 ppm (Pythium ultimum; 40 ppm) [%] | Percent Fungus Growth Inhibition (Pythium ultimum; 20 ppm) [%] | Percent Fungus Growth Inhibition (Pythium ultimum; 40 ppm) [%]
O=c1c(Cl)nsnc1Oc1ccccc1 [Compound 2, 3-chloro-5-phenoxy-4H--1,2,6-thiadiazin-4-one] | 0 | 100 | 0 | 42 | 100 | 100 | – | –
Cc1ccc(Oc2nsnc(Cl)c2=O)cc1 [Compound 3, 3-chloro-5-(4-methylphenoxy)-4H--1,2,6-thiadiazin-4-one] | 0 | 80 | 20 | 100 | 100 | 100 | – | –
CC(C)(C)c1ccc(Oc2nsnc(Cl)c2=O)cc1 [Compound 4, 3-chloro-5-(4-tert-butylphnoxy)-4H--1,2,6-thiadiazin-4-one] | 0 | 0 | 0 | 20 | 0 | 0 | – | –
COc1ccc(Oc2nsnc(Cl)c2=O)cc1 [Compound 5, 3-chloro-5-(4-methoxyphenoxy)4H--1,2,6-thiadiazin-4-one] | 0 | 50 | 0 | 42 | 76 | 100 | – | –
CCCCOc1ccc(Oc2nsnc(Cl)c2=O)cc1 [Compound 6, 3-chloro-5-(4-n-butoxyphenoxy)-4H--1,2,6-thiadiazin-4-one] | 0 | 0 | 0 | 0 | 0 | 22 | – | –
CCOC(=O)c1ccc(Oc2nsnc(Cl)c2=O)cc1 [Compound 7, 3-chloro-5-(4-ethoxycarbonylphenoxy)-4H--1,2,6-thiadiazin-4-one] | 75 | 98 | 11 | 29 | 80 | 100 | – | –
CC(=O)Nc1ccc(Oc2nsnc(Cl)c2=O)cc1 [Compound 8, 5-(4-acetylaminophenoxy)-3-chloro-4H--1,2,6-thiadiazin-4-one] | 0 | 0 | 0 | 100 | 100 | 100 | – | –
O=c1c(Cl)nsnc1Oc1ccc([N+](=O)[O-])cc1 [Compound 9, 3-chloro-5-(4-nitrophenoxy)-4H--1,2,6-thiadiazin-4-one] | 75 | 0 | 0 | 80 | 71 | 100 | – | –
N#Cc1ccc(Oc2nsnc(Cl)c2=O)cc1 [Compound 10, 3-chloro-5-(4-cyanophenoxy)-4H--1,2,6-thiadiazin-4-one] | 95 | 0 | 11 | 24 | 42 | 64 | – | –
O=c1c(Cl)nsnc1Oc1ccc(F)cc1 [Compound 11, 3-chloro-5-(4-fluorophenoxy)-4H--1,2,6-thiadiazin-4-one] | 0 | 0 | 0 | 18 | 82 | 100 | – | –
O=c1c(Cl)nsnc1Oc1ccc(Cl)cc1 [Compound 12, 3-chloro-5-(4-chlorophenoxy)-4H--1,2,6-thiadiazin-4-one] | 95 | 0 | 42 | 100 | 100 | 100 | – | –
O=c1c(Cl)nsnc1Oc1cccc(Cl)c1 [Compound 13, 3-chloro-5-(3-chlorophenoxy)-4H--1,2,6-thiadiazin-4-one] | 98 | 75 | 31 | 73 | 89 | 100 | – | –
O=c1c(Cl)nsnc1Oc1c(Cl)cccc1Cl [Compound 18, 3-chloro-5-(2,6-dichlorophenoxy)-4H--1,2,6-thiadiazin-4-one] | 98 | – | 13 | 60 | 100 | 100 | – | –
Nc1ccc(Oc2nsnc(Cl)c2=O)cc1 [Compound 27, 5-(4-aminophenoxy)-3-chloro-4H--1,2,6-thiadiazine-4-one hydrochloride] | – | – | – | – | – | – | 0 | 80
O=c1c(Cl)nsnc1Oc1ccc(O)cc1 [Compound 35, 3-chloro-5-(4-hydroxyphenoxy)-4H-1,2,6-thiadiazin-4-one] | – | – | 0 | 11 | 100 | 100 | – | –
O=C(Nc1ccccc1)Oc1ccc(Oc2nsnc(Cl)c2=O)cc1 [Compound 37, 3-chloro-5-[4-(phenylaminocarbonyloxy)phenoxy]-4H-1,2,6,-thiadiazin-4-one] | – | – | 100 | 0 | 20 | 100 | – | –
O=C(OCc1ccccc1)Oc1ccc(Oc2nsnc(Cl)c2=O)cc1 [Compound 38, 3-chloro-5-[4-(phenylmethoxycarbonyloxy)phenoxyl]-4H-1,2,6-thiadiazin-4-one] | – | – | 0 | 0 | 0 | 0 | – | –
CSc1ccc(Oc2nsnc(Cl)c2=O)cc1 [Compound 39, 3-chloro-5-[(4-methylthio)phenoxy]-4H-1,2,6,-thiadiazin-4-one] | – | – | 0 | 24 | 100 | 100 | – | –
C[S+]([O-])c1ccc(Oc2nsnc(Cl)c2=O)cc1 (stereo not drawn) [Compound 40, 3-chloro-5-[(4-methylsulfinyl)phenoxy]-4H-1,2,6,-thiadiazin-4-one] | – | – | 0 | 100 | 100 | 100 | – | –
CS(=O)(=O)c1ccc(Oc2nsnc(Cl)c2=O)cc1 [Compound 41, 3-chloro-5-[(4-methylsulfonyl)phenoxy]-4H--1,2,6-thiadiazin-4-one] | – | – | 0 | 100 | 100 | 100 | – | –
N#CCc1ccc(Oc2nsnc(Cl)c2=O)cc1 [Compound 46, 3-chloro-5-[(4-cyanomethyl)-phenoxy]4H--1,2,6-thiadiazin-4-one] | – | – | 0 | 40 | 87 | 100 | – | –
CC(=O)c1cccc(Oc2nsnc(Cl)c2=O)c1 [Compound 48, 3-(3-acetylphenoxy)-5-chloro-4H--1,2,6-thiadiazin-4-one] | – | 95 | 78 | 42 | 100 | 100 | – | –
COc1ccc(Cl)c(Oc2nsnc(Cl)c2=O)c1 [Compound 51, 3-chloro-5-[(2-chloro-5-methoxy)phenoxy]-4H--1,2,6-thiadiazin-4-one] | – | – | 0 | 31 | 91 | 100 | – | –
COc1cc(Cl)cc(Oc2nsnc(Cl)c2=O)c1 [Compound 52, 3-chloro-5-[(3-chloro-5-methoxy)phenoxy]-4H--1,2,6-thiadiazin-4-one] | – | – | 4 | 60 | 100 | 100 | – | –
O=c1c(Cl)nsnc1Oc1ccc([N+](=O)[O-])cc1Cl [Compound 53, 3-chloro-5-(2-chloro-4-nitrophenoxy)-4H--1,2,6-thiadiazin-4-one] | – | – | 20 | 82 | 100 | 100 | – | –
Cc1ccc(Cl)c(Oc2nsnc(Cl)c2=O)c1 [Compound 56, 3-chloro-5-[(2-chloro-5-methyl)phenoxy]-4H--1,2,6-thiadiazin-4-one] | – | – | 0 | 67 | 100 | 100 | – | –
COc1cc(Oc2nsnc(Cl)c2=O)cc(OC)c1C(C)=O [Compound 61, 3-[(4-acetyl-3,5-dimethoxy)-phenoxy]-5-chloro-4H--1,2,6-thiadiazin-4-one] | – | – | 31 | 42 | 100 | 100 | – | –
